Assay results from ChEMBL document CHEMBL1148572, “1-((S)-2-aminopropyl)-1H-indazol-6-ol: a potent peripherally acting 5-HT2 receptor agonist with ocular hypotensive activity” (J Med Chem, 2006).

Key:
[1] = target: Epidermal growth factor receptor (Homo sapiens) (UniProt P00533); test: Inhibition of EGFR at 1 nM
[2] = target: Glutamate [NMDA] receptor (Homo sapiens) (UniProt Q05586+Q12879+Q13224+O15399+O60391+Q14957+Q8TCU5); test: Inhibition of MK-801 site of glutamate receptor at 100 nM; type: protein-complex assay
[3] = target: Sodium-dependent noradrenaline transporter (Homo sapiens, UniProt P23975); test: Inhibition of NET at 10 uM
Chain of Sodium-dependent noradrenaline transporter (P23975 whole entry): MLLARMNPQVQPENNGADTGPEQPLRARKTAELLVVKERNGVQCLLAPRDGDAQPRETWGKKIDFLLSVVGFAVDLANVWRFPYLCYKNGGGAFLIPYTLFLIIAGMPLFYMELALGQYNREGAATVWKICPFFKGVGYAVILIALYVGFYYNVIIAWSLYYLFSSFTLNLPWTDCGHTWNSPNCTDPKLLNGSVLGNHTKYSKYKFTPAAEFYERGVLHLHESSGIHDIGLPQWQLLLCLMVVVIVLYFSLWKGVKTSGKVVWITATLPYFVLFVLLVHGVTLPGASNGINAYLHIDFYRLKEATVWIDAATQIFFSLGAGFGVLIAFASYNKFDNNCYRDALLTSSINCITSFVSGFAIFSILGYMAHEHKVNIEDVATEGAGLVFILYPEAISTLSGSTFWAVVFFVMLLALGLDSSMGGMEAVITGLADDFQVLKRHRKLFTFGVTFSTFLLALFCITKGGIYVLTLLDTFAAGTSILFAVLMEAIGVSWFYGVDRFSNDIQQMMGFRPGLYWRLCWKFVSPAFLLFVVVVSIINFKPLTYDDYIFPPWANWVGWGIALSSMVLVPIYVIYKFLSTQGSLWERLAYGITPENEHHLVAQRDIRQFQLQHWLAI

[4] = target: T1, 5-hydroxytryptamine receptor 2C (Rattus norvegicus, UniProt P08909); test: Activity against recombinant rat 5HT2C mediated intracellular calcium mobilization by FLIPR in SR3T3 cells
T1 sequence (P08909 whole entry): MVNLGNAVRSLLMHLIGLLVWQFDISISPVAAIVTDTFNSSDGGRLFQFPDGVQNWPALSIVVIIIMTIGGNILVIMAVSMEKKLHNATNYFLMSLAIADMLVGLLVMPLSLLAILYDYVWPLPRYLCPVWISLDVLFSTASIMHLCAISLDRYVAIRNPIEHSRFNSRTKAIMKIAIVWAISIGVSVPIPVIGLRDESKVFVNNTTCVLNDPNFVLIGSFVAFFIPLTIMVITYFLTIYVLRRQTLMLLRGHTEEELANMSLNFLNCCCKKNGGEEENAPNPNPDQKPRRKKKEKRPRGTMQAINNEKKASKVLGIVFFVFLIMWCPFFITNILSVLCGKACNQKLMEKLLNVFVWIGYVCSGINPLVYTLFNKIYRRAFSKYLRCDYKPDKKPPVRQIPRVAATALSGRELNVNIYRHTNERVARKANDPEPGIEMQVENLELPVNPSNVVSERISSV

[5] = target: T2, Endothelin-1 receptor (Homo sapiens) (UniProt P25101); test: Inhibition of human recombinant endothelin 1 receptor at 100 nM
T2 sequence (whole entry): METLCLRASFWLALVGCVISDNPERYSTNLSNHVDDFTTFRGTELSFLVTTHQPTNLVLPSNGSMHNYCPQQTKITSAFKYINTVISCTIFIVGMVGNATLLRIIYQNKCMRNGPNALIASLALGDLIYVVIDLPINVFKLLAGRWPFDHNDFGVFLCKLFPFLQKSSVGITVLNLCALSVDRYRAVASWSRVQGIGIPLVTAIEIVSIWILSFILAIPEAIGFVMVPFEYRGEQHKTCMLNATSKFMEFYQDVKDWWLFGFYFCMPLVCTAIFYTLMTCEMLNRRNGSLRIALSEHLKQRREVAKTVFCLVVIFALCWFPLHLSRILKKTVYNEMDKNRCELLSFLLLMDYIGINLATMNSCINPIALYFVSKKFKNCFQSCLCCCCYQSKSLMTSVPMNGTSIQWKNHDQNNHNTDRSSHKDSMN

[6] = target: Protein kinase C, PKC; classical/novel (Homo sapiens) (UniProt O94806+P17252+P05129+Q05655+P05771+Q02156+P24723+Q15139+Q04759); test: Inhibition of PDBu activated protein kinase C at 10 uM; type: protein assay
[7] = target: Sigma non-opioid intracellular receptor 1 (Homo sapiens) (UniProt Q99720); test: Inhibition of non selective binding to sigma receptor at 100 nM
Chain of Sigma non-opioid intracellular receptor 1 (Homo sapiens) (Q99720 whole entry): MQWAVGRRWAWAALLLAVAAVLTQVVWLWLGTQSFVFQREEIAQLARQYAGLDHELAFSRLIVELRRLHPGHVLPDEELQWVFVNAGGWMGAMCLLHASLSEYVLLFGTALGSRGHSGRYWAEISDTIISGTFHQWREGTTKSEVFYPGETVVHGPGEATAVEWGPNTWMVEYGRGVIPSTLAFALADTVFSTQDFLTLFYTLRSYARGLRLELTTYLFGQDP

[8] = target: Platelet-activating factor receptor (Homo sapiens) (UniProt P25105); test: Inhibition of PAF at 10 uM
Chain of Platelet-activating factor receptor (Homo sapiens) (P25105 whole entry): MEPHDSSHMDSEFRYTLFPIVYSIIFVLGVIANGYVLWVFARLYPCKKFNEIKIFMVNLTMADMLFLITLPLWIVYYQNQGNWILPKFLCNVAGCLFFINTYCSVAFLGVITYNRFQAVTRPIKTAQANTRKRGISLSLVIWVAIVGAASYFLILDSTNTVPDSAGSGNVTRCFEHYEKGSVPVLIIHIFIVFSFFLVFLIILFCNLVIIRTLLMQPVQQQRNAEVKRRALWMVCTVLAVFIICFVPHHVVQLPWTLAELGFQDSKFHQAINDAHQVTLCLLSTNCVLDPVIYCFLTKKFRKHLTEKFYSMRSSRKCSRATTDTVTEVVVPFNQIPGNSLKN

[9] = target: T3, Alpha-2A adrenergic receptor (Homo sapiens, UniProt P08913); test: Displacement of [3H]clonidine from cloned human adrenergic alpha2A receptor expressed in Sf9 cells
T3 sequence (P08913 whole entry): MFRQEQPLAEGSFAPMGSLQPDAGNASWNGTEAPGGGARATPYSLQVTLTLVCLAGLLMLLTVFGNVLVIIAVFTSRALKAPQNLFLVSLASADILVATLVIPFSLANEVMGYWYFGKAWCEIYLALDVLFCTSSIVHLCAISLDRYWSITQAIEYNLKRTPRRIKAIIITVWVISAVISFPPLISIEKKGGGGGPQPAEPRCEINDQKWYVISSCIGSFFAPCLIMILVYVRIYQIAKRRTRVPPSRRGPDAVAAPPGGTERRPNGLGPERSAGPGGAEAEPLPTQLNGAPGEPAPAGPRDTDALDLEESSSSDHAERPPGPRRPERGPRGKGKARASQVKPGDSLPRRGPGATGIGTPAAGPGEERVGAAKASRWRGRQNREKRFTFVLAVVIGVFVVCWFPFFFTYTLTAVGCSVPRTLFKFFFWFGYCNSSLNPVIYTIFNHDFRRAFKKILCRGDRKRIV

Chain of Epidermal growth factor receptor (Homo sapiens) (P00533 whole entry): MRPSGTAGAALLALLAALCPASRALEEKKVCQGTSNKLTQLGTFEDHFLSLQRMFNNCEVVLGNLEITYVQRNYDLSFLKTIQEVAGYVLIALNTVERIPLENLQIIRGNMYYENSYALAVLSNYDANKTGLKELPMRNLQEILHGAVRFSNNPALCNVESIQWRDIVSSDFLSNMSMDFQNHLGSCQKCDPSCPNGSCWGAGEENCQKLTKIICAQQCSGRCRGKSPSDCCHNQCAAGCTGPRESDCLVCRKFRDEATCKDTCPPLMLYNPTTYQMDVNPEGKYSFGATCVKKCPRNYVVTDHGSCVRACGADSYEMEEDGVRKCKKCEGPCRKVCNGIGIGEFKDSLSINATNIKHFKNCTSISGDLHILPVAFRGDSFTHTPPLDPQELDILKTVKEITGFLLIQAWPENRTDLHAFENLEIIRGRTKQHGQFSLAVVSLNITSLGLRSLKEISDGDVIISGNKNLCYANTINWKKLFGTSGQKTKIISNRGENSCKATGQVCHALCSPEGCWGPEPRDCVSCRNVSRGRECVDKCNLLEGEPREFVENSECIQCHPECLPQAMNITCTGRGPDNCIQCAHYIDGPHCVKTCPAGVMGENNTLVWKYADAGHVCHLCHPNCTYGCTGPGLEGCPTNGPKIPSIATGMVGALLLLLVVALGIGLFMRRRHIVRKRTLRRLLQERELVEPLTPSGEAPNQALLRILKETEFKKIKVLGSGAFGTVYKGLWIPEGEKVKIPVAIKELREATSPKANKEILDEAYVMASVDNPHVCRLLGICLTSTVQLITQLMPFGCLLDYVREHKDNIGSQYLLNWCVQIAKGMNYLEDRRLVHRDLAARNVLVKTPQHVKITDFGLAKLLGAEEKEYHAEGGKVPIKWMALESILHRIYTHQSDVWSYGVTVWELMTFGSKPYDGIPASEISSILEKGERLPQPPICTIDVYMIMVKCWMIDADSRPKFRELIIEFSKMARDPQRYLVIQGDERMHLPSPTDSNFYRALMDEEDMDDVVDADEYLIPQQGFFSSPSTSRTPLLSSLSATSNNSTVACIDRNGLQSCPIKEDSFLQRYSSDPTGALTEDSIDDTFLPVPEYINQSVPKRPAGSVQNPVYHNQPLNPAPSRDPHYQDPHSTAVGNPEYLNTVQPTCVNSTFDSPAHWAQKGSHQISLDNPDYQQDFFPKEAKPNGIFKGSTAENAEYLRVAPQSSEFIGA

C[C@H](N)Cn1ncc2ccc(O)cc21
inhibition [1]: 1.44% | inhibition [2]: 11.4% | inhibition [3]: 42.6% | EC50 [4]: 3.7 nM | inhibition [5]: 2.04% | inhibition [6]: 22.8% | inhibition [7]: 0.17% | inhibition [8]: 34.4% | Ki [9]: 2270 nM
